Values after ≈ are worked out from the molar mass of the structure shown. Active and inactive are the calls of the source. No cut-off for these calls is given here.
What was measured:
Plasmodium falciparum [1] = experiment: Antimalarial activity against chloroquine, pyrimethamine and cycloguanil resistant Plasmodium falciparum K1; format: functional, organism-based
[2] = Inhibition of N-terminal His6-tagged dog DHODH expressed in Escherichia coli BL21 using L-DHO as substrate and CoQ as co-substrate by DCIP dye based spectrophotometric assay; parameters: species or system Canis lupus familiaris
Plasmodium falciparum [3] = experiment: Antiplasmodial activity against Plasmodium falciparum 3D7 infected in RBC assessed as reduction in parasitemia incubated for 72 hrs by SYBR green dye-based assay; format: functional, organism-based; details: Plasmodium falciparum, 3D7, Erythrocyte, 72 h
Cytochrome P450 2B6 = molecular target: T1, Cytochrome P450 2B6 (Homo sapiens, UniProt P20813); experiment: Inhibition of CYP2B6 in human liver microsomes using isoform-specific probe substrates in presence of NADPH-generating system by LC-MS analysis; format: ADME
T1 sequence (P20813 whole entry): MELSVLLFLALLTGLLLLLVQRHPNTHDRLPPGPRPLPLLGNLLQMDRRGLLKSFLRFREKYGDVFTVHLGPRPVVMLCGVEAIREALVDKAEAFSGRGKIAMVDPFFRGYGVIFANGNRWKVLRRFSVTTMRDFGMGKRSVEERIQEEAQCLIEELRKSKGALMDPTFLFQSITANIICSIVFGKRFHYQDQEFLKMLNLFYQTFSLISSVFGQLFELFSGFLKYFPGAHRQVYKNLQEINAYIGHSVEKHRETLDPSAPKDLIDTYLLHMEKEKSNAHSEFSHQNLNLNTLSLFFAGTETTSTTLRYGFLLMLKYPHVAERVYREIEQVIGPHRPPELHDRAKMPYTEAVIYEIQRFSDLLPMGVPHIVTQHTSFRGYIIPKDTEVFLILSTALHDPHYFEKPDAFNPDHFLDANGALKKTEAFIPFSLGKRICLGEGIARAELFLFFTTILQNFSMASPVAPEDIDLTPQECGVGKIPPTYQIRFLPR

[4] = molecular target: Dihydroorotate dehydrogenase (quinone), mitochondrial (Rattus norvegicus, UniProt Q63707); experiment: Inhibition of N-terminal His6-tagged rat DHODH expressed in Escherichia coli BL21 expressed in Escherichia coli BL21 using L-DHO as substrate and CoQ as co-substrate by DCIP dye based spectrophotometric assay
[5] = Unbound AUC (0 to infinity) in Swiss mouse at 20 mg/kg, po administered as single dose via gavage measured over 24 hrs by LC-MS analysis; format: ADME, organism-based; details: in vivo
Plasmodium falciparum [6] = experiment: Antimalarial activity against atovaquone, chloroquine, cycloguanil and pyrimethamine resistant Plasmodium falciparum TM90C2B; format: functional, organism-based
Cytochrome P450 2C19 = Cytochrome P450 2C19 (Homo sapiens, UniProt P33261); experiment: Inhibition of CYP2C19 in human liver microsomes using isoform-specific probe substrates in presence of NADPH-generating system by LC-MS analysis; format: ADME; details: read-out: IC50
[7] = Unbound Cmax in Swiss mouse at 20 mg/kg, po administered as single dose via gavage measured over 24 hrs by LC-MS analysis; format: ADME, organism-based; details: in vivo
Cytochrome P450 2D6 = Cytochrome P450 2D6 (Homo sapiens, UniProt P10635); experiment: Inhibition of CYP2D6 in human liver microsomes using isoform-specific probe substrates in presence of NADPH-generating system by LC-MS analysis; format: ADME
[8] = Inhibition of N-terminal His6-tagged Plasmodium falciparum DHODH expressed in Escherichia coli BL21 using L-DHO as substrate and CoQ as co-substrate by DCIP dye based spectrophotometric assay
[9] = Solubility of compound in 0.1 N HCl measured after 5 to 6 hrs by HPLC-UV based analysis; format: physicochemical; details: buffer; time 5-6 hrs
Plasmodium falciparum [10] = experiment: Antimalarial activity against chloroquine, quinine, mefloquine, pyrimethamine, cycloguanil and sulfadoxine resistant Plasmodium falciparum Dd2; format: functional, organism-based
[11] = Intrinsic clearance in rat liver microsomes assessed per mg protein at 1 uM by LC-MS analysis; format: ADME, Microsome; details: microsomes, 1 µM
Plasmodium falciparum [12] = experiment: Antimalarial activity against Plasmodium falciparum D6; format: functional, organism-based
[13] = Solubility of compound in FaSSIF at pH 6.5 measured after 5 to 6 hrs by HPLC-UV based analysis
[14] = molecular target: Dihydroorotate dehydrogenase (quinone), mitochondrial (Mus musculus, UniProt O35435)
[15] = AUC (0 to infinity) in Swiss mouse at 20 mg/kg, po administered as single dose via gavage measured over 24 hrs by LC-MS analysis; format: ADME, organism-based; parameters: route oral, dose 20 mg/kg, time >24; details: in vivo
[16] = Protein binding in Swiss mouse plasma at 20 mg/kg, po administered as single dose via gavage measured over 24 hrs by LC-MS analysis; format: ADME, organism-based; details: read-out: PPB (converted)
[17] = Intrinsic clearance in human pooled liver microsomes assessed per mg protein at 1 uM by LC-MS analysis; format: ADME, Microsome; details: microsomes, 1 µM
Cytochrome P450 2C9 = Cytochrome P450 2C9 (Homo sapiens, UniProt P11712); experiment: Inhibition of CYP2C9 in human liver microsomes using isoform-specific probe substrates in presence of NADPH-generating system by LC-MS analysis; format: ADME
[18] = Intrinsic clearance in mouse liver microsomes at 1 uM by LC-MS analysis; format: ADME, Microsome
Cytochrome P450 1A2 = molecular target: T2, Cytochrome P450 1A2 (Homo sapiens, UniProt P05177); experiment: Inhibition of CYP1A2 in human liver microsomes using isoform-specific probe substrate in presence of NADPH-generating system by LC-MS analysis; format: ADME
T2 sequence (P05177 whole entry): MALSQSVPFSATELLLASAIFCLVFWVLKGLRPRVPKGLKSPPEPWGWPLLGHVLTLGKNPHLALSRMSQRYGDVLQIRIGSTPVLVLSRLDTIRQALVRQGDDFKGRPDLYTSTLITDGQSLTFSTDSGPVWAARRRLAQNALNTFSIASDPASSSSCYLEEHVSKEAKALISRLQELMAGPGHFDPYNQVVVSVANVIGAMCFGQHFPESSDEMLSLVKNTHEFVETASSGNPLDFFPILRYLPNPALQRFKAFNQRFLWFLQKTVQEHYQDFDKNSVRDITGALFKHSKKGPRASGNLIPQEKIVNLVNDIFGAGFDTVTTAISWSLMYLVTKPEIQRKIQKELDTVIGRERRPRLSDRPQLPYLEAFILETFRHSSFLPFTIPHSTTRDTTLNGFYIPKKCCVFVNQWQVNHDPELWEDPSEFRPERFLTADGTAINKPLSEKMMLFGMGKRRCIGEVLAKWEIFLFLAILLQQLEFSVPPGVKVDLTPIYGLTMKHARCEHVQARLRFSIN

[19] = molecular target: Dihydroorotate dehydrogenase (quinone), mitochondrial (Homo sapiens, UniProt Q02127); experiment: Inhibition of N-terminal His6-tagged human DHODH expressed in Escherichia coli BL21 using L-DHO as substrate and CoQ as co-substrate by DCIP dye based spectrophotometric assay
Plasmodium falciparum [20] = experiment: Antiplasmodial activity against Plasmodium falciparum 3D7 infected in po dosed NSG mouse assessed as reduction in parasitemia administered once daily for 4 consecutive days starting from day 3 post-infection and measured 24 hrs post last dose by flow cytometric analysis; format: functional; details: 3D7, po, 96 h, time 4 day
Plasmodium falciparum [21] = experiment: Antimalarial activity against pyrimethamine resistant Plasmodium falciparum HB3; format: functional, organism-based

Chain of Cytochrome P450 2D6 (P10635 whole entry, canonical isoform): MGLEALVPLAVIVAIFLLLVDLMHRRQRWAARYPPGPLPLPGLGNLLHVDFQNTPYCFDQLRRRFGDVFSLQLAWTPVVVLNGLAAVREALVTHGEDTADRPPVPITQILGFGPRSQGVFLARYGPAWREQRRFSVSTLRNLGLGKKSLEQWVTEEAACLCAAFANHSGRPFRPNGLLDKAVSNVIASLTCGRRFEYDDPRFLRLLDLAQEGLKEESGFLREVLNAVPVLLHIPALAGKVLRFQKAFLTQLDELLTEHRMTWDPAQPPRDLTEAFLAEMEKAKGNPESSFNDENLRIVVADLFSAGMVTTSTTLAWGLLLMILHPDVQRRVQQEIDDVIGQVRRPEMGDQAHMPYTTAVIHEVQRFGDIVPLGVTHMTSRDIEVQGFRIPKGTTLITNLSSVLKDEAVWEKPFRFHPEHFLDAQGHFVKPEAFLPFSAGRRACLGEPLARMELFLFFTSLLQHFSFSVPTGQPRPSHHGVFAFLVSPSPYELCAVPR
Chain of Dihydroorotate dehydrogenase (quinone), mitochondrial (Mus musculus, UniProt O35435) (O35435 whole entry): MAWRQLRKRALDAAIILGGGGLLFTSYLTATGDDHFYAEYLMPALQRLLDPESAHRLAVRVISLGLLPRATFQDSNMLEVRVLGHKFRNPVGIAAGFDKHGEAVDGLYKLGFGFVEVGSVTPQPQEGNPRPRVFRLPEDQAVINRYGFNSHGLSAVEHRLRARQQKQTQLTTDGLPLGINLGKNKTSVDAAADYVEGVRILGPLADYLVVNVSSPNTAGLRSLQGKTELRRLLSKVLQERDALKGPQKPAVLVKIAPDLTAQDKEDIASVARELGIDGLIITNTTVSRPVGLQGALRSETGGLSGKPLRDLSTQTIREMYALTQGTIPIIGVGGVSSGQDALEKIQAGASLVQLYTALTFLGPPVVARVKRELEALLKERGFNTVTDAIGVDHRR
Chain of Cytochrome P450 2C9 (P11712 whole entry, canonical isoform): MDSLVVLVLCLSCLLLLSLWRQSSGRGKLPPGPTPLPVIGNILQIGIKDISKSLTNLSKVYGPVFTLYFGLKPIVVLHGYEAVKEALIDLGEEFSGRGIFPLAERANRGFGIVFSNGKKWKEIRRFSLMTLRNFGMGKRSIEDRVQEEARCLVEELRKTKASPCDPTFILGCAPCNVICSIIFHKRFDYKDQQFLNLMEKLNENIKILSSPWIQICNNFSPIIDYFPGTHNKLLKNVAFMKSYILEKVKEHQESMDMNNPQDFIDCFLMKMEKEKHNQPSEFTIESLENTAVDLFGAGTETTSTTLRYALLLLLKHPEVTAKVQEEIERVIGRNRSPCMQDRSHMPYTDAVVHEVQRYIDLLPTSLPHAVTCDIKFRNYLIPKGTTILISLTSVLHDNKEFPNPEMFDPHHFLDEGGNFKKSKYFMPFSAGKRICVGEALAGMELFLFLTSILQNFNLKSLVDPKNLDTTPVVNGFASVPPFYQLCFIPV
Chain of Cytochrome P450 2C19 (P33261 whole entry, canonical isoform): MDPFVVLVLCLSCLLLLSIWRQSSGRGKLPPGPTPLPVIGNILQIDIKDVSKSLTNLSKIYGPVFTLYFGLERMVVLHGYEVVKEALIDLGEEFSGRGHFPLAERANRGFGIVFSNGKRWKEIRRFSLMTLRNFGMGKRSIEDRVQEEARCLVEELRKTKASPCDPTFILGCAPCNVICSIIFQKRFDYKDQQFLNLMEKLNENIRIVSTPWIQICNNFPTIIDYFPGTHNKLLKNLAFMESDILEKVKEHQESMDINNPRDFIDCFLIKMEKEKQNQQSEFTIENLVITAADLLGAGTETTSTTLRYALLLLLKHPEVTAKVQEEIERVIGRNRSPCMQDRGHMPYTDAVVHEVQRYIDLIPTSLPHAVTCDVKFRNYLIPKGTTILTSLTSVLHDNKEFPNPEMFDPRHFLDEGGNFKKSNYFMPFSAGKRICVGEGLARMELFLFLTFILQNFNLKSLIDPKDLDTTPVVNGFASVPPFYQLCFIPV
Chain of Dihydroorotate dehydrogenase (quinone), mitochondrial (Homo sapiens, UniProt Q02127) (Q02127 whole entry): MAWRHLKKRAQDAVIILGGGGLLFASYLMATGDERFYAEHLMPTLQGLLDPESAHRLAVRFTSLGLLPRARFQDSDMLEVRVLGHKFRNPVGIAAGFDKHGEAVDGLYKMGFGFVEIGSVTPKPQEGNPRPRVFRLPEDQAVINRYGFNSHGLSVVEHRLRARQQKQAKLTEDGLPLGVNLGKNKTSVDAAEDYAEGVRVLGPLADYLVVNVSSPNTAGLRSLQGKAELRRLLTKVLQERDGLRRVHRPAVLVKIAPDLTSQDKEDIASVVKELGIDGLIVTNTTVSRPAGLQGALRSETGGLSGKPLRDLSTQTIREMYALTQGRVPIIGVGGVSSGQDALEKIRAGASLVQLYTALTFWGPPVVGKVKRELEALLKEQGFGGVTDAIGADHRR
Chain of Dihydroorotate dehydrogenase (quinone), mitochondrial (Rattus norvegicus, UniProt Q63707) (Q63707 whole entry): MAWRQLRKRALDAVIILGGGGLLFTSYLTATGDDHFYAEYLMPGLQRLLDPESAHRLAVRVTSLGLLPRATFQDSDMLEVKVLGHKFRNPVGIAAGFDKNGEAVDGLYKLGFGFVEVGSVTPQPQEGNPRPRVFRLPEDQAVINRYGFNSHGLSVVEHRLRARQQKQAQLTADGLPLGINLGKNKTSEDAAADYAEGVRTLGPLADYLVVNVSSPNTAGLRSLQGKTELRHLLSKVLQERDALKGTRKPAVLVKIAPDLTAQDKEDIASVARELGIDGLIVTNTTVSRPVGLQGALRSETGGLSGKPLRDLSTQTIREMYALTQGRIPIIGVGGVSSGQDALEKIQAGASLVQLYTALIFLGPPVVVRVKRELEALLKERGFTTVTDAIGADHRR

SMILES | Activity (Plasmodium falciparum [1]) | IC50 [2] | EC50 (Plasmodium falciparum [3]) | IC50 (Cytochrome P450 2B6) | IC50 [4] | fAUC [5] | Activity (Plasmodium falciparum [6]) | IC50 (Cytochrome P450 2C19) | fCmax [7] | IC50 (Cytochrome P450 2D6) | IC50 [8] | solubility [9] | Activity (Plasmodium falciparum [10]) | Intrinsic clearance in rat liver microsomes (uL/min/mg protein) [11] | Activity (Plasmodium falciparum [12]) | solubility [13] | IC50 [14] | AUC [15] | fraction unbound at 24 h [16] | microsomal intrinsic clearance [17] | also measured
Cc1cc(N[C@H]2CCc3ccc(Cl)cc3C2)n2nc(C(C)(F)F)nc2n1 | Active | > 100 µM | 0.0012 µM | > 20 µM | > 100 µM | 0.59 µM·h | Active | > 20 µM | 0.13 µM | 2.7 µM | 0.0063 µM | 105 µg/mL (≈ 278 µM) | Active | 38 µL/min | Active | 12 µg/mL (≈ 31.8 µM) | > 100 µM | 22.7 µM·h | 0.026 | < 7 µL/min | IC50 (Cytochrome P450 2C9): 2.1 µM; intrinsic clearance [18]: 31 µL/min; IC50 (Cytochrome P450 1A2): > 20 µM; IC50 [19]: > 100 µM; ED90 (Plasmodium falciparum [20]): 19 mg/kg; Activity (Plasmodium falciparum [21]): Active
Cc1cc(NC2Cc3cc(F)c(F)cc3C2)n2nc(C(C)(F)F)nc2n1 | Active | > 100 µM | 0.04 µM | > 20 µM | > 100 µM | 7.9 µM·h | Active | > 20 µM | 1.4 µM | 5.9 µM | 0.052 µM | 180 µg/mL (≈ 493 µM) | Active | < 7 µL/min | Active | 15 µg/mL (≈ 41.1 µM) | > 100 µM | 169 µM·h | 0.047 | < 7 µL/min | IC50 (Cytochrome P450 2C9): 18.5 µM; intrinsic clearance [18]: 21 µL/min; IC50 (Cytochrome P450 1A2): > 20 µM; IC50 [19]: > 100 µM; ED90 (Plasmodium falciparum [20]): 35 mg/kg; Activity (Plasmodium falciparum [21]): Active

From ChEMBL document CHEMBL4706474, “Tetrahydro-2-naphthyl and 2-Indanyl Triazolopyrimidines Targeting Plasmodium falciparum Dihydroorotate Dehydrogenase Display Potent and Selective Antimalarial Activity” (J Med Chem, 2016)
